Source: patent US20040138315A1 (priority 2000, published 2004)
Where two headings read alike, the source gives them in different places.

Columns and labels:
thromboxane A2 synthase [1] = target: T1, thromboxane A2 synthase (Oryctolagus cuniculus, UniProt G1TAZ9); settings: reference compound, historical; read-out: Historical IC50, Thromboxane Synthetase; cited from earlier work
T1 sequence (G1TAZ9 1-530): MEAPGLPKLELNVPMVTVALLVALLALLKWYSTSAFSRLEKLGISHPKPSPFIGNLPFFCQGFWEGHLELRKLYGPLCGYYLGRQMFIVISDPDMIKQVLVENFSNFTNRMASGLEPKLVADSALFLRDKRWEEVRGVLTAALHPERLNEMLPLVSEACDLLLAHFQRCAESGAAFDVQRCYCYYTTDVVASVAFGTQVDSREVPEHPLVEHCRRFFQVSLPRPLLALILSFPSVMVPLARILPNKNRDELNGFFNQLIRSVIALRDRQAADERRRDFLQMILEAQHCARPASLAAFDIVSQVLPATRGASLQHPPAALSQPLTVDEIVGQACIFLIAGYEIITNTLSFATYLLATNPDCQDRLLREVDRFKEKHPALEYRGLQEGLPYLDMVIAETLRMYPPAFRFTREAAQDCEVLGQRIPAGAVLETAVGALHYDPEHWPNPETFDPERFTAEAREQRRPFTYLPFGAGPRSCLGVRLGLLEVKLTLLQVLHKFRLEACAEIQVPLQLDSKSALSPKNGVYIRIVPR

thromboxane A2 synthase [2] = target: T1, thromboxane A2 synthase; assay: Thromboxane A2 synthase inhibition, TXB2 radioimmunoassay (194000); type: biochemical, rabbit
Description: Test compounds (IG-1 through IG-11) were evaluated for their ability to inhibit cyclooxygenase COX-1, cyclooxygenase COX-2, and thromboxane synthase. In these assays, in addition to the designations set forth above, IG-05 refers to resorcinol and IG-06 refers to orcinol.
To assess Thromboxane A2 synthase, thromboxane A2 synthase isolated from a microsomal fraction of rabbit platelets by conventional centrifugation was used. The test compound and/or vehicle was incubated with 1:200 dilution of thromboxane A2 synthase and 5 ng prostaglandin G2 as substrate in Tris buffer pH 7.5 for 30 minutes at 37° C. The thromboxane A2 formed is immediately converted to thromboxane B2, which was quantitated by a radioimmunoassay. Compounds are screened at 100 μM.

[3] = tested on: PMA-induced aggregation of platelet rich plasma (phorbol ester receptor); assay: Phorbol ester, platelet aggregation (461500); type: cell-based, rabbit; settings: 30 μM, platelet rich plasma, rabbit
Description: (§1) Test compounds referred to above were evaluated for inhibition of platelet aggregation induced by adenosine diphosphate, arachidonic acid, phorbol ester and Platelet Activating Factor (PAF) at […]. The following methods were employed in this analysis, and reference compounds for the respective assays are indicated in Appendix 1:
(§2) Venous blood obtained from male or female New Zealand derived albino rabbits weighing 2.5-3 kg is mixed with one-tenth volume of trisodium citrate (0.13 M) and centrifuged at room temperature for 10 min at 220 g. Test substance (30 μM)-induced aggregation of the supernatant platelet rich plasma by 50 percent or more (≧50%) within 5 min, relative to control phorbol myristate acetate (PMA, 0.5 μM) response at 37° C. as measured by an optical aggregometer, indicates possible phorbol ester receptor agonist activity.
At a test substance concentration where no significant agonist activity is seen, ability to reduce the PMA (0.5 μM)-induced maximum non-reversible aggregation response by 50 percent or more (>50%) indicates phorbol ester receptor antagonist activity.

cyclooxygenase COX-1 = target: T2, cyclooxygenase COX-1 (Homo sapiens, UniProt P23219); assay: Cyclooxygenase COX-1 inhibition in human platelets, PGE2 EIA (116010); type: cell-based; settings: screened at 10 μM
T2 construct: host or cells: human platelets
Description: (§3) In these assays, in addition to the designations set forth above, IG-05 refers to resorcinol and IG-06 refers to orcinol.
To assess COX-1 inhibition, test compound and/or vehicle was incubated with human platelets (5×10^7/well) for 15 minutes at5 37° C. Calcium ionophore A23187 (10 μM) was added to induce the arachidonic acid cascade. After another 15 minutes incubation at 37° C., PGE2 levels in the supernatant were quantiated using the Amersham EIA kit. Compounds were screened at 10 μM.

[4] = target: T3, cyclooxygenase-2 (human recombinant) (Homo sapiens, UniProt P35354); assay: Cyclooxygenase COX-2 inhibition, recombinant enzyme, PGE2 EIA (118010); type: biochemical; settings: screened at 10 μM
T3 construct: 118010; host or cells: Spodoptera frugiperda (insect cells)
T3 sequence (P35354 18-604): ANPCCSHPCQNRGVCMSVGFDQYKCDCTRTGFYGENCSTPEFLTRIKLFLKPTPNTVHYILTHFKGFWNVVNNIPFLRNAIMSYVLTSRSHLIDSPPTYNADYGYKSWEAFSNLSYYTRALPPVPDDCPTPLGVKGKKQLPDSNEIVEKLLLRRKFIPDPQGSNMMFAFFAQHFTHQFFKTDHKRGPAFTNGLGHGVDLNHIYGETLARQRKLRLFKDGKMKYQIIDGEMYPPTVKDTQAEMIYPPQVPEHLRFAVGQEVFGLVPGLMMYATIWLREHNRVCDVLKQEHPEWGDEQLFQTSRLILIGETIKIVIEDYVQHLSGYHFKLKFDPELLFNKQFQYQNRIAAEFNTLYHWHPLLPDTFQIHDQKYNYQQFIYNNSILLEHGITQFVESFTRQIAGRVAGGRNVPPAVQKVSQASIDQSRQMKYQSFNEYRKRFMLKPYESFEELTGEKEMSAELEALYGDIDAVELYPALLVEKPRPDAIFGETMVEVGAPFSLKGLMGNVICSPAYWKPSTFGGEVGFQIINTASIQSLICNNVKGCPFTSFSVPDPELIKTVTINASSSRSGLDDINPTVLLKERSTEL
Description: as §3
Following centrifugation, substrate conversion to PGE2 was measured by an Amersham EIA kit. Compounds are screened at 10 μM.

[5] = tested on: PAF-acether-induced aggregation of platelet rich plasma (PAF receptor); assay: PAF, platelet aggregation (463010); type: cell-based, rabbit; settings: 30 μM, platelet rich plasma, rabbit
Description: as §1
as §2, with “temperture” for “temperature”, “Substance” for “substance”, “5 nM platelet activating factor-acether (PAF-acether)” for “phorbol myristate acetate (PMA, 0.5 μM)”, “37[…]” for “37° C.”, “PAF” for “phorbol ester”
At a test substance concentration where no significant agonist activity is seen, ability to reduce the PAF-acether-induced maximum non-reversible aggregation response by 50 percent or more (≧50%) indicates PAF receptor antagonist activity.

[6] = tested on: adenosine diphosphate-induced aggregation of platelet rich plasma (ADP receptor); assay: Adenosine diphosphate, platelet aggregation (404010); type: cell-based, rabbit; settings: 30 μM, platelet rich plasma, rabbit
Description: as §1
Venous blood obtained from male or female New Zealand derived albino rabbits weighing 2.5-3 kg was mixed with one-tenth volume of trisodium citrate (0.13 M) and centrifuged at room temperature for 10 min at 220 g. Test substance (30 EM)-induced aggregation of the supernatant platelet rich plasma by 50 percent or more (>50%) more relative to 1.2 μM adenosine diphosphate control response at 37° C. as mearsured by an optical aggregometer, indicates possible ADP receptor agonist activity.
At a test substance concentration where no significant agonist activity is seen, ability to reduce the adenosine diphosphate-induced maximum non-reversible aggregation response by 50 percent or more (≧50%) was indicative of ADP receptor antagonist activity.

[7] = tested on: arachidonic acid-induced aggregation of platelet rich plasma; assay: Arachidonic acid, platelet aggregation (412510); type: cell-based, rabbit; settings: 30 μM, platelet rich plasma, rabbit
Description: as §1
Venous blood obtained from male or female New Zealand derived albino rabbits weighting 2.5-3 kg was mixed with one-tenth volume of trisodeium citrate (0.13M) and centrifuged at room temperature for 10 min at 220 g. Test substance (30 μM)-induced aggregation of the supernatant platelet rich plasma by 50 percent or more (≧50%) within 5 min, relative to 100 μM arachidonic acid response at 37° C. as measured by an optical aggregometer indicates possible agonist activity.
At a test substance concentration where no significant agonist activity is seen, ability to reduce the arachidonic acid-induced maximum non-reversible aggregation response by 50 percent or more (>50%) was indicative of antagonist activity.

T2 sequence (P23219 24-599): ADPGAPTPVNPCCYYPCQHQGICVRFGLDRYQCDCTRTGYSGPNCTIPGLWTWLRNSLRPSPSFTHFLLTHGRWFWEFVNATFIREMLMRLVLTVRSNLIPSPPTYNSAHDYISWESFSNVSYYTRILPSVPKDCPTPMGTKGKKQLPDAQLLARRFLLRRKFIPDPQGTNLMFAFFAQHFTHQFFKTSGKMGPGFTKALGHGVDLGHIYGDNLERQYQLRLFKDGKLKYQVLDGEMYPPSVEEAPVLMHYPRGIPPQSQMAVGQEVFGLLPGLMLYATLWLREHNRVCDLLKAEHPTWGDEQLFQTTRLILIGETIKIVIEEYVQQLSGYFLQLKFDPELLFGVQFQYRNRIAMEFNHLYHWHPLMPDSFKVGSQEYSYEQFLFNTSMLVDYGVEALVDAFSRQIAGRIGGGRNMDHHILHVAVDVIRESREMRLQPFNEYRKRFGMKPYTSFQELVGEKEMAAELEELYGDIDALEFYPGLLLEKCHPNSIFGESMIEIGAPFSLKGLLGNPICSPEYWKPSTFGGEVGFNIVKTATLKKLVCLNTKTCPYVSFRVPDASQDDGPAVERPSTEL

Structure (SMILES) | IC50 (thromboxane A2 synthase [1]) [nM] | IC50 (thromboxane A2 synthase [2]; reference compound, concurrent, read-out: Concurrent IC50, Thromboxane Synthetase) [nM] | ANT. (antagonist response), phorbol ester platelet aggregation [3] [%] | AG. (agonist response), phorbol ester platelet aggregation ([3]; relative to PMA 0.5 μM) [%] | COX-1 inhibition (in words) (cyclooxygenase COX-1) | COX-2 inhibition (in words) [4] | melting point [°C] | ANT. (antagonist response), PAF platelet aggregation [5] [%] | AG. (agonist response), PAF platelet aggregation ([5]; relative to 5 nM PAF-acether) [%] | ANT. (antagonist response), ADP platelet aggregation [6] [%] | AG. (agonist response), ADP platelet aggregation ([6]; relative to […] ADP) [%] | ANT. (antagonist response), arachidonic acid platelet aggregation [7] [%] | AG. (agonist response), arachidonic acid platelet aggregation ([7]; relative to 100 μM arachidonic acid) [%] | Thromboxane synthase inhibition (in words) (thromboxane A2 synthase [2]; screened at 100 μM)
O=C(O)c1ccc(OCCn2ccnc2)cc1 [Dazoxiben, reference compound] | 22 | 61 | – | – | – | – | – | – | – | – | – | – | – | –
Cc1c(O)cc(C(C)(C)CCCC(C)C)cc1O [IG-10, 2-Methyl-5-(1,1,5-trimethylhexyl)resorcinol] | – | – | 9 | 0 | potent inhibitors of COX-1 | not COX-2 | 145 to 147 | 6 | 0 | 17 | 0 | 100 | 0 | significantly inhibit thromboxane synthase
